Data: paper PMC12254823 (Acta Pharmaceutica Sinica. B, 2025)
Values joined by “and” are separate entries in the source; they are usually repeats but may differ in a detail not shown here. Identical values can stand only once.

What was measured:
[1] = biological target: H1 PA-PB1 heterodimeric complex (Influenza A virus, UniProt P15659); assay type: biochemical
PA-C K643A = PA-C K643A (Influenza A virus, UniProt P15659, K643A); assay type: binding, influenza A virus (H1)

COc1ccc(NC(=S)NCc2cccc3cn[nH]c23)cc1OC [Compound 24, 1-[(1H-Indazol-7-yl)methyl]-3-(3,4-dimethoxyphenyl)thiourea]
PA-PB1 complex co-immunoprecipitated compared to DMSO control [1]: 53.5% ± 7.9% and 53.5%
Melting temperature (Tm) (PA-C K643A): 50.2 ± 1.9 °C
